Experimental data reported in ChEMBL document CHEMBL1201861, “Genomics of Drug Sensitity in Cancer screening data, Wellcome Trust Sanger Institute”.

Legend:
[1] = system: COLO-824; experiment: cells; format: functional, cell-based, Homo sapiens
Description: SANGER: Inhibition of human COLO-824 cell growth in a cell viability assay.

[2] = system: CP66-MEL; experiment: cells; format: functional, cell-based, Homo sapiens;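 further: growth inhibition of CP66-MEL cells determined in a cell viability assay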
Description: SANGER: Inhibition of human CP66-MEL cell growth in a cell viability assay.

[3] = system: Ca-Ski; experiment: cells; format: functional, cell-based, Homo sapiens;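 further: cell viability assay measuring inhibition of Ca-Ski cell growth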
Description: SANGER: Inhibition of human Ca-Ski cell growth in a cell viability assay.

[4] = system: DMS-79; experiment: cells; format: functional, cell-based, Homo sapiens
Description: SANGER: Inhibition of human DMS-79 cell growth in a cell viability assay.

[5] = system: DU-4475; experiment: cells; format: functional, cell-based, Homo sapiens
Description: SANGER: Inhibition of human DU-4475 cell growth in a cell viability assay.

[6] = system: EFO-27; experiment: cells; format: functional, cell-based, Homo sapiens;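 further: growth inhibition of EFO-27 cells, read out with a cell viability assay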
Description: SANGER: Inhibition of human EFO-27 cell growth in a cell viability assay.

[7] = system: ES1; experiment: cells; format: functional, cell-based, Homo sapiens;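 further: growth inhibition of ES1 cells, read out with a cell viability assay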
Description: SANGER: Inhibition of human ES1 cell growth in a cell viability assay.

[8] = system: ES3; experiment: cells; format: functional, cell-based, Homo sapiens;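 further: growth inhibition of ES3 cells, read out with a cell viability assay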
Description: SANGER: Inhibition of human ES3 cell growth in a cell viability assay.

[9] = system: G-401; experiment: cells; format: functional, cell-based, Homo sapiens
Description: SANGER: Inhibition of human G-401 cell growth in a cell viability assay.

[10] = system: HCC2218; experiment: cells; format: functional, cell-based, Homo sapiens;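 further: cell viability assay read-out, with IC50 given as the concentration that inhibits growth of the cell line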
Description: SANGER: Inhibition of human HCC2218 cell growth in a cell viability assay.

[11] = system: HCC38; experiment: cells; format: functional, cell-based, Homo sapiens;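 further: cell viability assay on the human HCC38 cell line, with IC50 marking the concentration that inhibits cell growth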
Description: SANGER: Inhibition of human HCC38 cell growth in a cell viability assay.

[12] = system: HL-60; experiment: cells; format: functional, cell-based, Homo sapiens;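 further: growth inhibition of human HL-60 cells, read out with a cell viability assay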
Description: SANGER: Inhibition of human HL-60 cell growth in a cell viability assay.

[13] = system: HOS; experiment: cells; format: functional, cell-based, Homo sapiens
Description: SANGER: Inhibition of human HOS cell growth in a cell viability assay.

[14] = system: JEG-3; experiment: cells; format: functional, cell-based, Homo sapiens;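 further: growth inhibition of human JEG-3 cells, read out with a cell viability assay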
Description: SANGER: Inhibition of human JEG-3 cell growth in a cell viability assay.

[15] = system: KYSE-180; experiment: cells; format: functional, cell-based, Homo sapiens;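 further: growth inhibition of KYSE-180 cells, read out with a cell viability assay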
Description: SANGER: Inhibition of human KYSE-180 cell growth in a cell viability assay.

[16] = system: LAMA-84; experiment: cells; format: functional, cell-based, Homo sapiens;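 further: growth inhibition of LAMA-84 cells, read out with a cell viability assay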
Description: SANGER: Inhibition of human LAMA-84 cell growth in a cell viability assay.

[17] = system: LB996-RCC; experiment: cells; format: functional, cell-based, Homo sapiens
Description: SANGER: Inhibition of human LB996-RCC cell growth in a cell viability assay.

[18] = system: LU-165; experiment: cells; format: functional, cell-based, Homo sapiens
Description: SANGER: Inhibition of human LU-165 cell growth in a cell viability assay.

[19] = system: Lu-65; experiment: cells; format: functional, cell-based, Homo sapiens;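 further: growth inhibition of Lu-65 cancer cells, read out by a cell viability assay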
Description: SANGER: Inhibition of human LU-65 cell growth in a cell viability assay.

[20] = system: MDA-MB-231; experiment: cells; format: functional, cell-based, Homo sapiens
Description: SANGER: Inhibition of human MDA-MB-231 cell growth in a cell viability assay.

[21] = system: MEL-HO; experiment: cells; format: functional, cell-based, Homo sapiens
Description: SANGER: Inhibition of human MEL-HO cell growth in a cell viability assay.

[22] = system: MKN-1; experiment: cells; format: functional, cell-based, Homo sapiens;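 further: growth inhibition of human MKN1 cells, read out by a cell viability measurement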
Description: SANGER: Inhibition of human MKN1 cell growth in a cell viability assay.

[23] = system: MZ1-PC; experiment: cells; format: functional, cell-based, Homo sapiens;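 further: cell viability assay measuring growth inhibition of human MZ1-PC cells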
Description: SANGER: Inhibition of human MZ1-PC cell growth in a cell viability assay.

[24] = system: NB1; experiment: cells; format: functional, cell-based, Homo sapiens;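 further: reduction of NB1 cell proliferation, read out with a viability assay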
Description: SANGER: Inhibition of human NB1 cell growth in a cell viability assay.

[25] = system: NB6; experiment: cells; format: functional, cell-based, Homo sapiens
Description: SANGER: Inhibition of human NB6 cell growth in a cell viability assay.

[26] = system: NB69; experiment: cells; format: functional, cell-based, Homo sapiens;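 further: growth inhibition of NB69 cells, determined by a cell viability assay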
Description: SANGER: Inhibition of human NB69 cell growth in a cell viability assay.

[27] = system: NCI-H1522; experiment: cells; format: functional, cell-based, Homo sapiens;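 further: growth inhibition of NCI-H1522 cells, read out with a cell viability assay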
Description: SANGER: Inhibition of human NCI-H1522 cell growth in a cell viability assay.

[28] = system: NCI-H1755; experiment: cells; format: functional, cell-based, Homo sapiens;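 further: cell viability readout used to measure growth inhibition of NCI-H1755 cells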
Description: SANGER: Inhibition of human NCI-H1755 cell growth in a cell viability assay.

[29] = system: NCI-H1882; experiment: cells; format: functional, cell-based, Homo sapiens;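 further: growth inhibition of the cell line, determined with a viability assay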
Description: SANGER: Inhibition of human NCI-H1882 cell growth in a cell viability assay.

[30] = system: NCI-H2087; experiment: cells; format: functional, cell-based, Homo sapiens;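 further: growth inhibition determined with a cell viability readout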
Description: SANGER: Inhibition of human NCI-H2087 cell growth in a cell viability assay.

[31] = system: NCI-H520; experiment: cells; format: functional, cell-based, Homo sapiens;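 further: growth inhibition of NCI-H520 cells, measured by a cell viability assay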
Description: SANGER: Inhibition of human NCI-H520 cell growth in a cell viability assay.

[32] = system: SNU-16; experiment: cells; format: functional, cell-based, Homo sapiens;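 further: growth inhibition of human SNU-16 cells, determined with a cell viability readout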
Description: SANGER: Inhibition of human NCI-SNU-16 cell growth in a cell viability assay.

[33] = system: PFSK-1; experiment: cells; format: functional, cell-based, Homo sapiens;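 further: cell viability assay measuring how strongly compounds suppress growth of human PFSK-1 cells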
Description: SANGER: Inhibition of human PFSK-1 cell growth in a cell viability assay.

[34] = system: RD; experiment: cells; format: functional, cell-based, Homo sapiens
Description: SANGER: Inhibition of human RD cell growth in a cell viability assay.

[35] = system: RO82-W-1; experiment: cells; format: functional, cell-based, Homo sapiens;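 further: growth inhibition of human RO82-W-1 cells, measured with a cell viability assay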
Description: SANGER: Inhibition of human RO82-W-1 cell growth in a cell viability assay.

[36] = system: RPMI-8226; experiment: cells; format: functional, cell-based, Homo sapiens
Description: SANGER: Inhibition of human RPMI-8226 cell growth in a cell viability assay.

[37] = system: RPMI 8402; experiment: SANGER: Inhibition of human RPMI-8402 cell growth in a cell viability assay.; format: functional, cell-based; conditions: read-out: IC50
[38] = system: S-117; experiment: cells; format: functional, cell-based, Homo sapiens
Description: SANGER: Inhibition of human S-117 cell growth in a cell viability assay.

[39] = system: SF-295; experiment: cells; format: functional, cell-based, Homo sapiens;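 further: growth inhibition of SF-295 cells, read out with a cell viability assay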
Description: SANGER: Inhibition of human SF295 cell growth in a cell viability assay.

[40] = system: SH-4; experiment: cells; format: functional, cell-based, Homo sapiens;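 further: growth inhibition of SH-4 cells, read out with a cell viability assay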
Description: SANGER: Inhibition of human SH-4 cell growth in a cell viability assay.

[41] = system: SNU-387; experiment: cells; format: functional, cell-based, Homo sapiens
Description: SANGER: Inhibition of human SNU-387 cell growth in a cell viability assay.

[42] = system: SNU-C1; experiment: cells; format: functional, cell-based, Homo sapiens;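 further: growth inhibition of SNU-C1 human cells, read out by a cell viability assay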
Description: SANGER: Inhibition of human SNU-C1 cell growth in a cell viability assay.

[43] = system: SW48; experiment: cells; format: functional, cell-based, Homo sapiens;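 further: growth inhibition of SW48 cells, read out with a cell viability assay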
Description: SANGER: Inhibition of human SW48 cell growth in a cell viability assay.

[44] = system: SW-620; experiment: cells; format: functional, cell-based, Homo sapiens;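 further: growth inhibition of human SW-620 cells, measured by a cell viability assay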
Description: SANGER: Inhibition of human SW620 cell growth in a cell viability assay.

[45] = system: 647-V; experiment: cells; format: functional, cell-based, Homo sapiens;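 further: growth inhibition of 647-V cells, read out with a cell viability assay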
Description: SANGER: Inhibition of human 647-V cell growth in a cell viability assay.

[46] = system: BHT-101; experiment: cells; format: functional, cell-based, Homo sapiens
Description: SANGER: Inhibition of human BHT-101 cell growth in a cell viability assay.

[47] = system: C2BBe1; experiment: cells; format: functional, cell-based, Homo sapiens;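 further: growth inhibition of C2BBe1 cells, read out through a viability assay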
Description: SANGER: Inhibition of human C2BBe1 cell growth in a cell viability assay.

[48] = system: CAL-120; experiment: cells; format: functional, cell-based, Homo sapiens
Description: SANGER: Inhibition of human CAL-120 cell growth in a cell viability assay.

[49] = system: VM-CUB-1; experiment: cells; format: functional, cell-based, Homo sapiens;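 further: cell viability assay measuring growth inhibition of the human VM-CUB-1 cell line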
Description: SANGER: Inhibition of human VM-CUB-1 cell growth in a cell viability assay.

## BLEOMYCIN
[1]; colo-824
  IC50: 53.3 µM
[2]; cp66-mel
  IC50: 957 µM
[3]; ca-ski
  IC50: 0.798 µM
[4]; dms-79
  IC50: 325 µM
[5]; du-4475
  IC50: 1.27 µM
[6]; efo-27
  IC50: 0.571 µM
[7]; es1
  IC50: 0.0267 µM
[8]; es3
  IC50: 1.61 µM
[9]; g-401
  IC50: 3.29 µM
[10]; hcc2218
  IC50: 41.9 µM
[11]; hcc38
  IC50: 0.0312 µM
[12]; hl-60
  IC50: 35.3 µM
[13]; hos
  IC50: 0.56 µM
[14]; jeg-3
  IC50: 8.55 µM
[15]; kyse-180
  IC50: 3.8 µM
[16]; lama-84
  IC50: 4.29 µM
[17]; lb996-rcc
  IC50: 0.175 µM
[18]; lu-165
  IC50: 41.8 µM
[19]; lu-65
  IC50: 19.5 µM
[20]; mda-mb-231
  IC50: 0.273 µM
[21]; mel-ho
  IC50: 0.85 µM
[22]; mkn-1
  IC50: 0.0796 µM
[23]; mz1-pc
  IC50: 0.224 µM
[24]; nb1
  IC50: 11.6 µM
[25]; nb6
  IC50: 430 µM
[26]; nb69
  IC50: 0.923 µM
[27]; nci-h1522
  IC50: 2450 µM
[28]; nci-h1755
  IC50: 26 µM
[29]; nci-h1882
  IC50: 11.5 µM
[30]; nci-h2087
  IC50: 2.35 µM
[31]; nci-h520
  IC50: 16.1 µM
[32]; snu-16
  IC50: 16100 µM
[33]; pfsk-1
  IC50: 33.4 µM
[34]; rd
  IC50: 106 µM
[35]; ro82-w-1
  IC50: 339 µM
[36]; rpmi-8226
  IC50: 906 µM
[37]; rpmi-8402
  IC50: 30.7 µM
[38]; s-117
  IC50: 90.2 µM
[39]; sf-295
  IC50: 0.0214 µM
[40]; sh-4
  IC50: 7.85 µM
[41]; snu-387
  IC50: 0.925 µM
[42]; snu-c1
  IC50: 82 µM
[43]; sw48
  IC50: 0.546 µM
[44]; sw-620
  IC50: 3.56 µM
[45]; 647-v
  IC50: 1.73 µM
[46]; bht-101
  IC50: 7.34 µM
[47]; c2bbe1
  IC50: 91.8 µM
[48]; cal-120
  IC50: 5.56 µM
[49]; vm-cub-1
  IC50: 4.92 µM

## Cc1cc([N+](=O)[O-])ccc1NS(=O)(=O)c1cc(Cl)ccc1Cl
[1]; Homo sapiens, COLO-824
  IC50: 18.1 µM
[2]; Homo sapiens, CP66-MEL
  IC50: 0.268 µM
[3]; Homo sapiens, Ca-Ski
  IC50: 12.1 µM
[4]; Homo sapiens, DMS-79
  IC50: > 32 µM
[5]; Homo sapiens, DU-4475
  IC50: 7.83 µM
[6]; Homo sapiens, EFO-27
  IC50: 4.83 µM
[7]; Homo sapiens, ES1
  IC50: 11.4 µM
[8]; Homo sapiens, ES3
  IC50: 7.72 µM
[9]; Homo sapiens, G-401
  IC50: 0.861 µM
[10]; Homo sapiens, HCC2218
  IC50: 3.44 µM
[11]; Homo sapiens, HCC38
  IC50: 7.96 µM
[12]; Homo sapiens, HL-60
  IC50: 3.79 µM
[13]; Homo sapiens, HOS
  IC50: 2.53 µM
[14]; Homo sapiens, JEG-3
  IC50: 4.9 µM
[15]; Homo sapiens, KYSE-180
  IC50: 3.13 µM
[16]; Homo sapiens, LAMA-84
  IC50: 6.09 µM
[17]; Homo sapiens, LB996-RCC
  IC50: 14.5 µM
[18]; Homo sapiens, LU-165
  IC50: > 32 µM
[19]; Homo sapiens, Lu-65
  IC50: 31.8 µM
[20]; Homo sapiens, MDA-MB-231
  IC50: 14.3 µM
[21]; Homo sapiens, MEL-HO
  IC50: 6.53 µM
[22]; Homo sapiens, MKN-1
  IC50: 4.21 µM
[23]; Homo sapiens, MZ1-PC
  IC50: 6.31 µM
[24]; Homo sapiens, NB1
  IC50: 8.38 µM
[25]; Homo sapiens, NB6
  IC50: 13.5 µM
[26]; Homo sapiens, NB69
  IC50: 31.3 µM
[27]; Homo sapiens, NCI-H1522
  IC50: > 32 µM
[28]; Homo sapiens, NCI-H1755
  IC50: 15.8 µM
[29]; Homo sapiens, NCI-H1882
  IC50: > 32 µM
[30]; Homo sapiens, NCI-H2087
  IC50: 2.16 µM
[31]; Homo sapiens, NCI-H520
  IC50: 6.2 µM
[32]; Homo sapiens, SNU-16
  IC50: > 32 µM
[33]; Homo sapiens, PFSK-1
  IC50: 12.4 µM
[34]; Homo sapiens, RD
  IC50: 7.33 µM
[35]; Homo sapiens, RO82-W-1
  IC50: > 32 µM
[36]; Homo sapiens, RPMI-8226
  IC50: 6.56 µM
[37]; Homo sapiens, RPMI 8402
  IC50: 6.85 µM
[38]; Homo sapiens, S-117
  IC50: < 0.125 µM
[39]; Homo sapiens, SF-295
  IC50: 2.34 µM
[40]; Homo sapiens, SH-4
  IC50: 1.38 µM
[41]; Homo sapiens, SNU-387
  IC50: 7.66 µM
[42]; Homo sapiens, SNU-C1
  IC50: > 32 µM
[43]; Homo sapiens, SW48
  IC50: 2.48 µM
[44]; Homo sapiens, SW-620
  IC50: 3.93 µM
[45]; Homo sapiens, 647-V
  IC50: 3.09 µM
[46]; Homo sapiens, BHT-101
  IC50: 21.4 µM
[47]; Homo sapiens, C2BBe1
  IC50: 25.4 µM
[48]; Homo sapiens, CAL-120
  IC50: 6.02 µM
[49]; Homo sapiens, VM-CUB-1
  IC50: 8.15 µM

## Nc1ccn([C@@H]2O[C@H](CO)[C@@H](O)C2(F)F)c(=O)n1 [GEMCITABINE]
[1]; Homo sapiens, COLO-824
  IC50: > 1.02 µM
[2]; Homo sapiens, CP66-MEL
  IC50: > 1.02 µM
[3]; Homo sapiens, Ca-Ski
  IC50: 0.00709 µM
[4]; Homo sapiens, DMS-79
  IC50: > 1.02 µM
[5]; Homo sapiens, DU-4475
  IC50: 0.00314 µM
[6]; Homo sapiens, EFO-27
  IC50: 0.00905 µM
[7]; Homo sapiens, ES1
  IC50: < 0.004 µM
[8]; Homo sapiens, ES3
  IC50: 0.0446 µM
[9]; Homo sapiens, G-401
  IC50: 0.0552 µM
[10]; Homo sapiens, HCC2218
  IC50: > 1.02 µM
[11]; Homo sapiens, HCC38
  IC50: 0.0219 µM
[12]; Homo sapiens, HL-60
  IC50: 0.0157 µM
[13]; Homo sapiens, HOS
  IC50: < 0.004 µM
[14]; Homo sapiens, JEG-3
  IC50: 0.277 µM
[15]; Homo sapiens, KYSE-180
  IC50: 0.0128 µM
[16]; Homo sapiens, LAMA-84
  IC50: 0.115 µM
[17]; Homo sapiens, LB996-RCC
  IC50: 0.0651 µM
[18]; Homo sapiens, LU-165
  IC50: > 1.02 µM
[19]; Homo sapiens, Lu-65
  IC50: 0.304 µM
[20]; Homo sapiens, MDA-MB-231
  IC50: 0.0278 µM
[21]; Homo sapiens, MEL-HO
  IC50: 0.00516 µM
[22]; Homo sapiens, MKN-1
  IC50: 0.0784 µM
[23]; Homo sapiens, MZ1-PC
  IC50: 0.254 µM
[24]; Homo sapiens, NB1
  IC50: 0.488 µM
[25]; Homo sapiens, NB6
  IC50: > 1.02 µM
[26]; Homo sapiens, NB69
  IC50: 0.00105 µM
[27]; Homo sapiens, NCI-H1522
  IC50: > 1.02 µM
[28]; Homo sapiens, NCI-H1755
  IC50: 0.718 µM
[29]; Homo sapiens, NCI-H1882
  IC50: 0.0824 µM
[30]; Homo sapiens, NCI-H2087
  IC50: 0.00214 µM
[31]; Homo sapiens, NCI-H520
  IC50: 0.0188 µM
[32]; Homo sapiens, SNU-16
  IC50: > 1.02 µM
[33]; Homo sapiens, PFSK-1
  IC50: > 1.02 µM
[34]; Homo sapiens, RD
  IC50: 0.13 µM
[35]; Homo sapiens, RO82-W-1
  IC50: > 1.02 µM
[36]; Homo sapiens, RPMI-8226
  IC50: 0.016 µM
[37]; Homo sapiens, RPMI 8402
  IC50: 0.0459 µM
[38]; Homo sapiens, S-117
  IC50: > 1.02 µM
[39]; Homo sapiens, SF-295
  IC50: 0.0511 µM
[40]; Homo sapiens, SH-4
  IC50: 0.00902 µM
[41]; Homo sapiens, SNU-387
  IC50: 0.827 µM
[42]; Homo sapiens, SNU-C1
  IC50: > 1.02 µM
[43]; Homo sapiens, SW48
  IC50: 0.463 µM
[44]; Homo sapiens, SW-620
  IC50: 0.00135 µM
[45]; Homo sapiens, 647-V
  IC50: < 0.004 µM
[46]; Homo sapiens, BHT-101
  IC50: 0.21 µM
[47]; Homo sapiens, C2BBe1
  IC50: > 1.02 µM
[48]; Homo sapiens, CAL-120
  IC50: 0.576 µM
[49]; Homo sapiens, VM-CUB-1
  IC50: 0.0347 µM
